Test results from patent US20120214847A1, “2-[1-PHENYL-5-HYDROXY-4a-SUBSTITUTED-HEXAHYDROCYCLOPENTA[F]INDAZOL-5-YL]ETHYL PHENYL DERIVATIVES AS GLUCOCORTICOID RECEPTOR LIGANDS” (Merck Sharp & Dohme Corp., priority 2009, published 2012).
Like-named read-outs stand apart in the source and are kept apart here.

Biological target: T1, human GR (Homo sapiens, UniProt P04150)
T1 construct: naturally expresses the human GR; endogenous in cells
T1 sequence (P04150 1-777): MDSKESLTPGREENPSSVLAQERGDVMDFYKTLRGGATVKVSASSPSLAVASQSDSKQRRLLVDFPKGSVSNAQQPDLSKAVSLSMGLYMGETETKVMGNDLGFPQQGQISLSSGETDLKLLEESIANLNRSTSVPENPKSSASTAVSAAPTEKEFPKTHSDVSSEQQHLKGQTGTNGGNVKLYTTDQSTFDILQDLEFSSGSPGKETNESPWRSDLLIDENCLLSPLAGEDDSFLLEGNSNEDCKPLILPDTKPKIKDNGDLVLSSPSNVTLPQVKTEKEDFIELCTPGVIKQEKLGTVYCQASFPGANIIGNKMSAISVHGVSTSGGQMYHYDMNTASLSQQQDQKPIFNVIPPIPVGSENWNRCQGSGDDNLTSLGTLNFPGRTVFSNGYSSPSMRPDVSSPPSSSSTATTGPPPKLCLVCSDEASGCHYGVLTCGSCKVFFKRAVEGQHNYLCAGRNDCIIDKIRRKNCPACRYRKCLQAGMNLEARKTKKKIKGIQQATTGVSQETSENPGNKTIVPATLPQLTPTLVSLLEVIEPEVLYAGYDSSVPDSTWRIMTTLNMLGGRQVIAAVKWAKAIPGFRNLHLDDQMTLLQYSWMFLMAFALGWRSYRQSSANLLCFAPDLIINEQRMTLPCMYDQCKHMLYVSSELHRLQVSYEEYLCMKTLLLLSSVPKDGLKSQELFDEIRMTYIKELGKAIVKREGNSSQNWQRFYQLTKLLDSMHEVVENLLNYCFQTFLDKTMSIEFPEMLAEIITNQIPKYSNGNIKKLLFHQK
Assay: Trans-activation modulation of glucocorticoid receptor (GRAMMER), MMTV-LUC reporter in A549 cells
Type: cell-based
Settings: for Emax: read-out: Transactivation A549 Cells Grammer Emax (%); for EC50: IP = inflection point, read-out: Transactivation A549 Cells Grammer IP

[1] = A549, A549 cells, Emax relative to the activity obtained with 300 nM dexamethasone
[2] = A549 cells, Emax relative to the activity obtained with 300 nM dexamethasone

Compound | Emax [1] [%] | EC50 (A549 cells) [µM] | Transactivation A549 Cells Grammer Emax (%) [2] [%] | Emax [2] [%]
NC(=O)c1c(C(F)(F)F)ccnc1CC[C@]1(O)CCC2=Cc3c(cnn3-c3ccc(F)cc3)C[C@@]21C1CC1 [Example 55, 2-{2-[(4aR,5R)-4a-Cyclopropyl-1-(4-fluorophenyl)-5-hydroxy-1,4,4a,5,6,7-hexahydrocyclopenta[f]indaozol-5-yl]ethyl}-4-(trifluoromethyl)pyridine-3-carboxamide] | 38 | 0.007 |  | 
CS(=O)(=O)c1ccccc1CC[C@]1(O)CCC2=Cc3c(cnn3-c3ccc(F)cc3)C[C@@]21C1CC1 [Example 58, (4aR,5R)-4a-Cyclopropyl-1-(4-fluorophenyl)-5-{2-[2-(methylsulfonyl)phenyl]ethyl}-1,4,4a,5,6,7-hexahydrocyclopenta[f]indazol-5-ol] | 11 | 0.009 |  | 
CCS(=O)(=O)c1ccccc1CC[C@]1(O)CCC2=Cc3c(cnn3-c3ccc(F)cc3)C[C@@]21C1CC1 [Example 59, (4aR,5R)-4a-Cyclopropyl-5-{2-[2-(ethylsulfonyl)phenyl]ethyl}-1-(4-fluorophenyl)-1,4,4a,5,6,7-hexahydrocyclopenta[f]indazol-5-ol] | 7 | 0.035 |  | 
O=S(=O)(c1ccccc1CC[C@]1(O)CCC2=Cc3c(cnn3-c3ccc(F)cc3)C[C@@]21C1CC1)C1CC1 [Example 63, (4aR,5R)-4a-Cyclopropyl-5-{2-[2-(cyclopropylsulfonyl)phenyl]ethyl}-1-(4-fluorophenyl)-1,4,4a,5,6,7-hexahydrocyclopenta[f]indazol-5-ol] | 5 | 0.042 |  | 
CC[C@]12Cc3cnn(-c4ccc(F)cc4)c3C=C1CC[C@@]2(O)CCc1nccc(OC)c1C(F)C(N)=O (stereo partly drawn) [Example 65, 2-(2-{2-[(4aS,5R)-4a-Ethyl-1-(4-fluorophenyl)-5-hydroxy-1,4,4a,5,6,7-hexahydrocyclopenta[f]indazol-5-yl]ethyl}-4-methoxypyridin-3-yl)-2-fluoroacetamide] |  | 0.175 |  | 34
COc1ccnc(CC[C@]2(O)CCC3=Cc4c(cnn4-c4ccc(F)cc4)C[C@@]32C2CC2)c1C(F)C(N)=O (stereo partly drawn) [Example 66, 2-(2-{2-[(4aR,5R)-4a-Cyclopropyl-1-(4-fluorophenyl)-5-hydroxy-1,4,4a,5,6,7-hexahydrocyclopenta[f]indazol-5-yl]ethyl}-4-methoxypyridin-3-yl)-2-fluoroacetamide] |  | 0.007 |  | 45
CC[C@]12Cc3cnn(-c4ccc(F)cc4)c3C=C1CC[C@@]2(O)CC(O)c1cc(C#N)ccn1 (stereo partly drawn) [Example 72, 2-{2-[(4aS,5R)-4a-Ethyl-1-(4-fluorophenyl)-5-hydroxy-1,4,4a,5,6,7-hexahydrocyclopenta[f]indazol-5-yl]-1-hydroxyethyl}pyridine-4-carbonitrile] | 13 | 0.187 |  | 
CC[C@]12Cc3cnn(-c4ccccc4)c3C=C1CC[C@@]2(O)CC(O)c1cc(C#N)ccn1 (stereo partly drawn) [Example 75, 2-{2-[(4aS,5R)-4a-Ethyl-5-hydroxy-1-phenyl-1,4,4a,5,6,7-hexahydrocyclopenta[f]indazol-5-yl]-1-hydroxyethyl}pyridine-4-carbonitrile] | 10 | 0.106 |  | 
OC(C[C@]1(O)CCC2=Cc3c(cnn3-c3ccc(F)cc3)C[C@@]21C1CC1)c1ccccn1 (stereo partly drawn) [Example 78, (4aR,5R)-4a-Cyclopropyl-1-(4-fluorophenyl)-5-[2-hydroxy-2-(pyridin-2-yl)ethyl]-1,4,4a,5,6,7-hexahydrocyclopenta[f]indazol-5-ol] | 13 | 0.066 |  | 

Continued, in another order:

Emax [1] [%] | EC50 (A549 cells) [µM] | Transactivation A549 Cells Grammer Emax (%) [2] [%] | Compound | Emax [2] [%]
9 | 0.014 |  | NC(=O)Cc1ccccc1CC[C@]1(O)CCC2=Cc3c(cnn3-c3ccc(F)cc3)C[C@@]21C1CC1 [Example 56, 2-(2-{2-[(4aR,5S)-4a-Cyclopropyl-1-(4-fluorophenyl)-5-hydroxy-1,4,4a,5,6,7-hexahydrocyclopenta[f]indazol-5-yl]ethyl}phenyl)acetamide] | 
11 | 0.031 |  | NC(=O)[C@H](F)c1c(F)cccc1CC[C@]1(O)CCC2=Cc3c(cnn3-c3ccc(F)cc3)C[C@@]21C1CC1 [Example 57, (2R)-2-(2-{2-[(4aR,5R)-4a-Cyclopropyl-1-(4-fluorophenyl)-5-hydroxy-1,4,4a,5,6,7-hexahydrocyclopenta[f]indazol-5-yl]ethyl}-6-fluorophenyl)-2-fluoroethanamide] | 
39 | 0.038 |  | CC[C@]12Cc3cnn(-c4ccc(F)cc4)c3C=C1CC[C@@]2(O)CCc1cccc(F)c1CC(N)=O [Example 60, 2-(2-{2-[(4aS,5R)-4a-Ethyl-1-(4-fluorophenyl)-5-hydroxy-1,4,4a,5,6,7-hexahydrocyclopenta[f]indazol-5-yl]ethyl}-6-fluorophenyl)acetamide] | 
13 | 0.021 |  | NC(=O)Cc1c(F)cccc1CC[C@]1(O)CCC2=Cc3c(cnn3-c3ccc(F)cc3)C[C@@]21C1CC1 [Example 61, 2-(2-{2-[(4aR,5R)-4a-Cyclopropyl-1-(4-fluorophenyl)-5-hydroxy-1,4,4a,5,6,7-hexahydrocyclopenta[f]indazol-5-yl]ethyl}-6-fluorophenyl)acetamide] | 
43 | 0.035 |  | CC[C@]12Cc3cnn(-c4ccc(F)cc4)c3C=C1CC[C@@]2(O)CCc1ncccc1S(=O)(=O)C(C)C [Example 62, (4aS,5R)-4a-Ethyl-1-(4-fluorophenyl)-5-{2-[3-(propan-2-ylsulfonyl)pyridin-2-yl]ethyl}-1,4,4a,5,6,7-hexahydrocyclopenta[f]indazol-5-ol] | 
37 | 0.142 |  | CC[C@]12Cc3cnn(-c4ccc(F)cc4)c3C=C1CC[C@@]2(O)CCc1nccc(OC)c1CC(N)=O [Example 64, 2-(2-{2-[(4aS,5R)-4a-Ethyl-1-(4-fluorophenyl)-5-hydroxy-1,4,4a,5,6,7-hexahydrocyclopenta[f]indazol-5-yl]ethyl}-4-methoxypyridin-3-yl)acetamide] | 
21 | 0.049 |  | CC[C@]12Cc3cnn(-c4ccc(F)cc4)c3C=C1CC[C@@]2(O)CC(O)c1ccccn1 (stereo partly drawn) [Example 68, (4aS,5R)-4a-Ethyl-1-(4-fluorophenyl)-5-[2-hydroxy-2-(pyridin-2-yl)ethyl]-1,4,4a,5,6,7-hexahydrocyclopenta[f]indazol-5-ol] | 
31 | 0.083 |  | CC[C@]12Cc3cnn(-c4ccc(F)cc4)c3C=C1CC[C@@]2(O)CC(O)c1ncccc1Cl (stereo partly drawn) [Example 70, (4aS,5R)-5-[2-(3-Chloropyridin-2-yl)-2-hydroxyethyl]-4a-ethyl-1-(4-fluorophenyl)-1,4,4a,5,6,7-hexahydrocyclopenta[f]indazol-5-ol] | 
30 | 0.078 |  | CC[C@]12Cc3cnn(-c4ccc(F)cc4)c3C=C1CC[C@@]2(O)CC1OC(=O)c2ccccc21 (stereo partly drawn) [Example 71, 3-{[(4aS,5R)-4a-Ethyl-1-(4-fluorophenyl)-5-hydroxy-1,4,4a,5,6,7-hexahydrocyclopenta[f]indazol-5-yl]methyl}-2-benzofuran-1(3H)-one] | 
34 | 0.101 |  | CC[C@]12Cc3cnn(-c4ccc(F)cc4)c3C=C1CC[C@@]2(O)CC(O)c1cncc(F)c1 (stereo partly drawn) [Example 73, (4aS,5R)-4a-Ethyl-1-(4-fluorophenyl)-5-[2-(5-fluoropyridin-3-yl)-2-hydroxyethyl]-1,4,4a,5,6,7-hexahydrocyclopenta[f]indazol-5-ol] | 
41 | 0.065 |  | CC[C@]12Cc3cnn(-c4ccc(F)cc4)c3C=C1CC[C@@]2(O)CC(O)c1c(F)ccnc1Cl (stereo partly drawn) [Example 74, (4aS,5R)-5-[2-(2-Chloro-4-fluoropyridin-3-yl)-2-hydroxyethyl]-4a-ethyl-1-(4-fluorophenyl)-1,4,4a,5,6,7-hexahydrocyclopenta[f]indazol-5-ol] | 
31 | 0.142 |  | CC[C@]12Cc3cnn(-c4ccc(F)cc4)c3C=C1CC[C@@]2(O)CC(O)c1ncccc1F (stereo partly drawn) [Example 76, (4aS,5R)-4a-Ethyl-1-(4-fluorophenyl)-5-[2-(3-fluoropyridin-2-yl)-2-hydroxyethyl]-1,4,4a,5,6,7-hexahydrocyclopenta[f]indazol-5-ol] | 
 | 0.115 | 23 | CC[C@]12Cc3cnn(-c4ccc(F)cc4)c3C=C1CC[C@@]2(O)CC(O)c1ncccc1F (stereo partly drawn) [Example 77, (4aS,5R)-4a-Ethyl-1-(4-fluorophenyl)-5-[2-(3-fluoropyridin-2-yl)-2-hydroxyethyl]-1,4,4a,5,6,7-hexahydrocyclopenta[f]indazol-5-ol] | 
